Assay results reported in patent US20220175766A1, “COMPOSITIONS AND METHODS OF TREATMENT” (GB004, Inc., priority 2019, published 2022).
Read-outs that look alike come from different tables or passages of the source.

Tests used:
[1] = Compound 1 pH-solubility at 22° C.; format: physicochemical; settings: thermodynamic from solid
Source text: The solubility of Compound 1 at various pH's was investigated.

[2] = format: physicochemical
Protocol: Binary mixtures of Compound 1 HCl salt (prepared according to Example 2.1) and excipient were stored at 40° C. and 75% RH for 4 weeks and analysed at weekly intervals for appearance, moisture content (KF) and HPLC purity of Compound 1, with the excipients studied being microcrystalline cellulose, silicified microcrystalline cellulose, lactose, crospovidone, croscarmellose sodium, sodium starch glycolate, magnesium stearate, sodium stearyl fumarate, red iron oxide, blue #2, eudragit, polyvinylpyrrolidone, HPMC-AS, anhydrous citric acid and HPMC.

[3] = Dispersion of Compound 1⋅HCl in stirred water with or without poloxamer 188; format: physicochemical; settings: 0.25 g in 50 mL water, in the presence of poloxamer 188 (0.25 g) vs without
Protocol: Compound 1⋅HCl (0.25 g) was added to each of two stirred beakers containing water (50 mL), one also containing poloxamer 188 (0.25 g). The dispersion of Compound 1 throughout the beaker was higher in the presence of Poloxamer 188.

SMILES: CC(C)(C)OC(=O)N1CCN(Cc2ccn(Cc3ccc(Cl)cc3)c(=O)c2O)CC1.Cl [Compound 1 HCl salt]
- solubility ([1]; citrate buffer, aqueous buffer, pH 3 (Citrate 25 mM, l = 0.1), pH 3.0, 22° C.): 600 µg/mL
- solubility ([1]; simulated gastric fluid, 0.1M HCl, pH 1.3, 22° C.): 1810 µg/mL
- solubility ([1]; Water (1 mg/ml load), pH 3.1, 22° C.): 550 µg/mL
- solubility ([1]; Water (5 mg/ml load), pH 2.2, 22° C.): 2070 µg/mL
- Stability on storage ([2]; 40° C. and 75% RH for 4 weeks): stable
- Appearance of binary mixture ([2]; binary mixture with citric acid, 40° C. and 75% RH, after 1 week): liquefied
- API purity by HPLC ([2]; binary mixture with citric acid, 40° C. and 75% RH, after 4 weeks): 34.1%
- Total impurities ([2]; binary mixture with microcrystalline cellulose, 40° C. and 75% RH, after 4 weeks): 0.51%
- Total impurities ([2]; binary mixture with silicified microcrystalline cellulose, 40° C. and 75% RH, after 4 weeks): 0.69%
- Dispersion of Compound 1 throughout the beaker [3]: higher
